The text below walks through data of patent US4535161A, “Benzoquinolizine derivatives” (Daiichi Seiyaku Co., Ltd., priority 1982, dated 1985).

≈ marks a conversion by molar mass, not a printed value. Where a name gives a salt, the structure may show the parent alone. Read-outs that look alike come from different tables or passages of the source. Where only a bound is given, the exact number is not on record here.

A short description of data set [1]: Acute toxicity (LD50) in mice (i.v.). The settings on record: mouse, in vivo, iv.
For data set [2], the system named is Pr. vulgaris, 08602. Kind of data set: Antibacterial activity (MIC), Table 1: Pr. vulgaris, 08602. Format: cell-based. As to conditions: Proteus vulgaris, Mueller-Hinton Broth, 10^6/ml, 37° C., 18 hours. On the procedure: (§1) *Determined by the standard method of the Japan Society of Chemoterapy:
(§2) (MuellerHinton Broth medium), 10^6 /ml of bacteria were seeded and
(§3) incubated at 37° C. for 18 hours.

Data set [3] has as its system S. epidermidis, 56500. Nature of the data set: Antibacterial activity (MIC), Table 1: S. epidermidis, 56500. Format: cell-based. The settings on record: Staphylococcus epidermidis, Mueller-Hinton Broth, 10^6/ml, 37° C., 18 hours. Here is the method: as §1, §2, §3
Data set [4] deals with B. subtilis, ATCC-6633. Nature of the data set: Antibacterial activity (MIC), Table 1: B. subtilis, ATCC-6633. Format: cell-based. As to conditions: Bacillus subtilis, ATCC6633, Mueller-Hinton Broth, 10^6/ml, 37° C., 18 hours. On the procedure: as §1, §2, §3
For data set [5], the system named is Ps. aeruginosa, 32234. Nature of the data set: Antibacterial activity (MIC), Table 1: Ps. aeruginosa, 32234. The class given is cell-based. The settings on record: Pseudomonas aeruginosa, Mueller-Hinton Broth, 10^6/ml, 37° C., 18 hours. On the procedure: as §1, §2, §3
For data set [6], the system named is Str. faecalis, ATCC-19433. Kind of data set: Antibacterial activity (MIC), Table 1: Str. faecalis, ATCC-19433. Format: cell-based. As to conditions: Enterococcus faecalis, ATCC19433, Mueller-Hinton Broth, 10^6/ml, 37° C., 18 hours. On the procedure:
as §1, §2, §3

Data set [7] has as its system Ps. aeruginosa, 32104. Kind of data set: Antibacterial activity (MIC), Table 1: Ps. aeruginosa, 32104. The class given is cell-based. As to conditions: Pseudomonas aeruginosa, Mueller-Hinton Broth, 10^6/ml, 37° C., 18 hours. On the procedure: as §1, §2, §3
Data set [8] concerns Sh. flexneri, 2a, 5503. Nature of the data set: Antibacterial activity (MIC), Table 1: Sh. flexneri, 2a, 5503. The class given is cell-based. As to conditions: Shigella flexneri, Mueller-Hinton Broth, 10^6/ml, 37° C., 18 hours. Here is the method: as §1, §2, §3
The test system of data set [9] is Ps. aeruginosa, 32122. Kind of data set: Antibacterial activity (MIC), Table 1: Ps. aeruginosa, 32122. The class given is cell-based. The settings on record: Pseudomonas aeruginosa, Mueller-Hinton Broth, 10^6/ml, 37° C., 18 hours. On the procedure: as §1, §2, §3
In data set [10] the test system is Ps. aeruginosa, 32233. Kind of data set: Antibacterial activity (MIC), Table 1: Ps. aeruginosa, 32233. Format: cell-based. As to conditions: Pseudomonas aeruginosa, Mueller-Hinton Broth, 10^6/ml, 37° C., 18 hours. Here is the method:
as §1, §2, §3

The test system of data set [11] is Ent. cloacae, 03400. Nature of the data set: Antibacterial activity (MIC), Table 1: Ent. cloacae, 03400. The class given is cell-based. Here is the method:
as §1, §2, §3

Data set [12] deals with Ser. marcescens, 10104. Kind of data set: Antibacterial activity (MIC), Table 1: Ser. marcescens, 10104. The settings on record: Serratia marcescens, Mueller-Hinton Broth, 10^6/ml, 37° C., 18 hours. The class given is cell-based. On the procedure: as §1, §2, §3
In data set [13] the test system is Str. pyogenes, G-36. Nature of the data set: Antibacterial activity (MIC), Table 1: Str. pyogenes, G-36. Format: cell-based. The settings on record: Streptococcus pyogenes, G36, Mueller-Hinton Broth, 10^6/ml, 37° C., 18 hours. On the procedure: as §1, §2, §3
Data set [14] relates to S. aureus, 209 P. Kind of data set: Antibacterial activity (MIC), Table 1: S. aureus, 209 P. As to conditions: Staphylococcus aureus, Mueller-Hinton Broth, 10^6/ml, 37° C., 18 hours. The class given is cell-based. Here is the method:
as §1, §2, §3

For data set [15], the system named is Gram-positive bacteria. Kind of data set: Antibacterial activity against Gram-positive bacteria (summary of Table 1). The class given is cell-based. The settings on record: in words. Here is the method: as §1, §2, §3
The subject of data set [16] is Ps. aeruginosa, 32121. Kind of data set: Antibacterial activity (MIC), Table 1: Ps. aeruginosa, 32121. The settings on record: Pseudomonas aeruginosa, Mueller-Hinton Broth, 10^6/ml, 37° C., 18 hours. Format: cell-based. Here is the method: as §1, §2, §3
The subject of data set [17] is K. pneumoniae, type 1. Nature of the data set: Antibacterial activity (MIC), Table 1: K. pneumoniae, type 1. The class given is cell-based. As to conditions: Klebsiella pneumoniae, TYPE1, Mueller-Hinton Broth, 10^6/ml, 37° C., 18 hours. On the procedure: as §1, §2, §3
The test system of data set [18] is E. coli, NIHJ. Kind of data set: Antibacterial activity (MIC), Table 1: E. coli, NIHJ. The settings on record: Escherichia coli, Mueller-Hinton Broth, 10^6/ml, 37° C., 18 hours. The class given is cell-based. On the procedure:
as §1, §2, §3

Data set [19] deals with Pr. mirabilis, IFO-3849. Kind of data set: Antibacterial activity (MIC), Table 1: Pr. mirabilis, IFO-3849. Format: cell-based. As to conditions: Proteus mirabilis, IFO3849, Mueller-Hinton Broth, 10^6/ml, 37° C., 18 hours. On the procedure:
as §1, §2, §3

The subject of data set [20] is Pseudomonas aeruginosa. Nature of the data set: Antibacterial activity against Pseudomonas aeruginosa (summary of Table 1). Format: cell-based. As to conditions: in words. On the procedure: as §1, §2, §3

Compound `C=C1CCc2c(N3CCC(N)C3)c(F)cc3c(=O)c(C(=O)O)cn1c23` (stereo not shown) [Ib, hydrochloric acid addition salt, 8-(3-amino--pyrrolidinyl)-9-fluoro-5-methylene-6,7-dihydro-1-oxo-1H,5H-benzo(ij)quinolizine-2-carboxylic acid] registered a median lethal dose (LD50) in data set [1] of 252 mg/kg.
For `C=C1CCc2c(N3CCC(O)C3)c(F)cc3c(=O)c(C(=O)O)cn1c23` (stereo not shown) [Ia, 9-fluoro-8-(3-hydroxy-1-pyrrolidinyl)-5-methylene-1-oxo-6,7-dihydro-1H,5H-benzo(ij)quinolizine-2-carboxylic acid], the MIC in [2] is 0.05 µg/mL (≈ 0.145 µM); in data set [3] it was 0.1 µg/mL (≈ 0.29 µM); in [4], at most 0.0063 µg/mL; in data set [5], 0.39 µg/mL (≈ 1.13 µM); in data set [6] it was 0.39 µg/mL (≈ 1.13 µM); in data set [7], 0.31 µg/mL (≈ 0.9 µM). For the same compound, the MIC in data set [8] is 0.0125 µg/mL (≈ 0.0363 µM); in [9], 0.39 µg/mL (≈ 1.13 µM); in [10], 0.78 µg/mL (≈ 2.27 µM); in data set [11] (Enterobacter cloacae, Ent. cloacae, 03400, Mueller-Hinton Broth, 10^6/ml, 37° C., 18 hours, read-out: MIC), 0.05 µg/mL (≈ 0.145 µM); in data set [12] it was 0.1 µg/mL (≈ 0.29 µM); in data set [13], 0.39 µg/mL (≈ 1.13 µM). In addition, the minimum inhibitory concentration (MIC) in [14] was determined as 0.05 µg/mL (≈ 0.145 µM); in data set [16], 0.1 µg/mL (≈ 0.29 µM); in data set [17], 0.1 µg/mL (≈ 0.29 µM); in data set [18] it was 0.0125 µg/mL (≈ 0.0363 µM); in data set [19], 0.1 µg/mL (≈ 0.29 µM). Further, the “antibacterial activity against Gram-positive bacteria” value in [15] is “very strong antibacterial activity”.
In the case of `C=C1CCc2c(N3CCC(N)C3)c(F)cc3c(=O)c(C(=O)O)cn1c23` (stereo not shown) [Ib, 8-(3-amino-1-pyrrolidinyl)-9-fluoro-5-methylene-1-oxo-6,7-dihydro-1H,5H-benzo(ij)quinolizine-2-carboxylic acid], the MIC in data set [2] was found to be 0.025 µg/mL (≈ 0.0728 µM); in data set [3], 0.19 µg/mL (≈ 0.553 µM); in data set [4] it was 0.025 µg/mL (≈ 0.0728 µM); in data set [5] it was 0.05 µg/mL (≈ 0.146 µM); in [6], 0.39 µg/mL (≈ 1.14 µM); in data set [7] it was 0.05 µg/mL (≈ 0.146 µM). Further, the MIC in data set [8] turned out to be 0.0125 µg/mL (≈ 0.0364 µM); in data set [9], 0.1 µg/mL (≈ 0.291 µM); in data set [10], 0.1 µg/mL (≈ 0.291 µM); in data set [11] (Enterobacter cloacae, 03400, 18 h), 0.0125 µg/mL (≈ 0.0364 µM); in data set [12] it was 0.05 µg/mL (≈ 0.146 µM); in [13], 0.39 µg/mL (≈ 1.14 µM). The MIC turned out to be 0.1 µg/mL (≈ 0.291 µM) in data set [14]; 0.025 µg/mL (≈ 0.0728 µM) in data set [16]; 0.05 µg/mL (≈ 0.146 µM) in [17]; 0.0125 µg/mL (≈ 0.0364 µM) in data set [18]; 0.025 µg/mL (≈ 0.0728 µM) in [19]. Also, the “antibacterial activity against Pseudomonas aeruginosa” value in data set [20] is listed as “very strong antibacterial activity”.
